Data taken from US20240270748A1 (Merck Patent GmbH, priority 2021, published 2024).
pIC50: −log10 of the molar value.

Assays:
YAP-TEAD interaction = assay: SK-HEP-1 reporter assay (8xTEAD responsive elements driving NanoLuc luciferase); type: cell-based
Outline: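 SK-HEP-1 cells stably carrying 8×TEAD-driven NanoLuc treated in duplicate, 10-point dose from 30 μM final, 0.3% DMSO, 24 h at 37° C. Luminescence after NanoGlo lysis/substrate addition; IC50 calculated from dose response.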

SW620 Yap KO cells = assay: Viability assay in SW620 Yap KO (Yap independent) cells, CyQuant; type: cell-based
Experimental: (§1) Viability Assay in NCI-H226 (Yap-Dependent) and SW620 Yap KO (Yap Independent) Cells
(§2) The ability of YAP-TEAD inhibitors to inhibit tumor cell growth was evaluated using two different cell lines: NCI-H226, which is a YAP dependent cell line, and SW620 cells, where YAP and TAZ were knocked out using CRISPR to generate a YAP independent cell line.
(§3) For the assay, cells were treated in duplicates with the test compounds in a 10-point dose, 1:3 dilution steps, with the top concentration starting at 30 μM (final concentration in assay). After a 96 hour incubation at 37° C., 95% rH, and 5% CO2, a cell-permeant DNA-binding dye that stains only healthy cells (CyQUANT®, Promega) was added to the cells, allowing the quantification of cell viability.
(§4) Cell Media: The NCI-H226 cells were cultured in the following media: RPMI 1640, +10% FBS, +1× GlutaMAX, +10 mM HEPES, +0.5% Pen/Strep. The SW620-KO cells were cultured in the following media: DMEM/F-12, +10% FBS, +1× GlutaMAX, +10 mM HEPES, +0.5% Pen/Strep.
(§5) Reagents: The reagents used are listed below:
(§6) Cell culture: The cells were examined using an inverted microscope to check for health, cell density, etc. To dissociate adherent cells, the monolayer of cells was washed once with pre-warmed PBS. After removing the PBS, 3 ml pre-warmed Accutase was added to a F75 flask, dispersed evenly and the flask was allowed to sit in incubator for ˜4-5 minutes.
(§7) When a single cell suspension was obtained, 7 ml of prewarmed growth media was added and resuspended with the cells. The cell suspension was transferred to a sterile 15 ml conical centrifuge tube, and spun for 5 min at 300×g, RT. The supernatant was discarded and the pellet was resuspended in 10 ml of pre-warmed growth media.
(§8) The total cell count was determined, and 20 μl of the desired cell number was added to each well of a 384 well plate using a Multidrop Combi. The plates were then incubated for 24 hours at 37° C., 95% rH, and 5% CO2.
(§9) Compound treatment: 24 hours after seeding, the cells were treated with compounds.
(§10) A 1:333 dilution of compounds, diluted in DMSO, was made to get a final concentration of 0.3% DMSO per well. To transfer the compounds to the assay plate, […] was shot from Labcyte low dead volume plates to the cell plates containing 20 μl media/well with the ECHO 555 liquid handling system.
(§11) After treatment, the cells were fed with 20 μl fresh pre-warmed assay media using a Multidrop combi.
(§12) The assay plates were then incubated for 96 h at 37° C., 95% rH, and 5% CO2.
(§13) 96 h after treatment 30 μl of CyQuant® reagent was added to the assay plates using a Multidrop combi in the dark. The plates were then incubated for 1 hour at 37° C., 95% rH and 5% CO2. Thereafter, the assay plates were removed from the incubator and allowed to equilibrate to RT for 30 min in the dark without lid. Finally, they were measured using an EnVision microplate reader with a FITC bottom read program.

NCI-H226 cells = assay: Viability assay in NCI-H226 (Yap-dependent) cells, CyQuant; type: cell-based, human; details: Homo sapiens, NCI-H226, 96 h, class symbols
Experimental: as §1, §2, §3, §4, §5, §6, §7, §8, §9, §10, §11, §12, §13

[1] = Homo sapiens, SK-HEP1, SK-HEP-1 reporter assay, class symbols
[2] = Homo sapiens, SW-620, 96 h, n.d. = value not detectable below threshold given in parentheses
[3] = Homo sapiens, SW-620, 96 h, n.d. = value not detectable below threshold given in parentheses, ND = not determinable within the entire range
[4] = Homo sapiens, SK-HEP1, SK-HEP-1 reporter assay, n.d. = value not detectable below threshold given in parentheses

| SMILES | pIC50 (YAP-TEAD interaction; [1]) | pIC50 (SW620 Yap KO cells; [2]) | pIC50 (NCI-H226 cells) | pIC50 (SW620 Yap KO cells; [3]) | other results |
| --- | --- | --- | --- | --- | --- |
| Cn1cc2c3cc(C(=O)NCc4ccncc4)ccc3n(-c3ccc(C(F)F)cc3)c2n1 [Example C209, 8-[4-(difluoromethyl)phenyl]-2-methyl-N-[(pyridin-4-yl)methyl]-2H,8H-pyrazolo[3,4-b]indole-5-carboxamide] | 7.00 to 8.00 | < 4.52 | 6.00 to 7.00 |  |  |
| CNC(=O)c1cnc2c(c1)c1cn(C)nc1n2-c1ccc(C(F)(F)F)cc1 [Example C227, N,4-dimethyl-7-[4-(trifluoromethyl)-phenyl]-4,5,7,9-tetraazatricyclo [6.4.0.0^2,6]dodeca-1(8),2,5,9,11-pentaene-11-carboxamide] | 7.00 to 8.00 | < 4.52 | 7.00 to 9.00 |  |  |
| C[C@@H](CCN(C)C(=O)c1ccc2c(c1)c1cn(C)nc1n2-c1ccc(C(F)(F)F)cc1)NC(=O)c1ccc2c(c1)c1cn(C)nc1n2-c1ccc(C(F)(F)F)cc1 [Example C48, N,2-dimethyl-N-[(3S)-3-({2-methyl-8-[4-(trifluoromethyl)phenyl]-2H,8H-pyrazolo[3,4-b]indol-5-yl}formamido)butyl]-8-[4-(trifluoromethyl)phenyl]-2H,8H-pyrazolo[3,4-b]indole-5-carboxamide] | 5.00 to 7.00 |  | 5.00 to 6.00 | < 5.49 |  |
| Cn1cc2c3cc(C(=O)N[C@@H](CCO)c4cncs4)ccc3n(-c3ccc(C(F)(F)F)cc3)c2n1 (single isomer, unassigned) [Example C162] | 7.00 to 8.00 |  | 7.00 to 9.00 | < 4.52 |  |
| Cn1cc2c3cc(C(=O)N=[S@](=O)(CCCO)Cc4cccnc4)ccc3n(-c3ccc(C(F)(F)F)cc3)c2n1 (single isomer, unassigned) [Example C201] |  |  | 6.00 to 7.00 |  | pIC50 (YAP-TEAD interaction; [4]): < 6.52; pIC50 (SW620 Yap KO cells; Homo sapiens, SW-620, 96 h, class symbols): 5.00 to 6.00 |
| Cn1cc2c3cc(C(=O)N=[S@@](C)(=O)CCO)ccc3n(-c3ccc(C(F)(F)F)cc3)c2n1 (single isomer, unassigned) [Example C74] | 7.00 to 8.00 |  | 7.00 to 9.00 | < 4.52 |  |
| Cn1cc2c3cc(C(=O)NC(CO)c4cscn4)ccc3n(-c3ccc(C(F)(F)F)cc3)c2n1 (stereo not drawn) [Example C277, N-[2-hydroxy-1-(1,3-thiazol-4-yl)ethyl]-2-methyl-8-[4-(trifluoromethyl)phenyl]-2H,8H-pyrazolo[3,4-b]indole-5-carboxamide] | 7.00 to 8.00 | < 4.52 | 7.00 to 9.00 |  |  |
| C[C@H](NC(=O)c1ccc2c(c1)c1cn(C)nc1n2-c1ccc(C(F)(F)F)cc1)c1ccccn1 [Example C105, 2-methyl-N-[(1S)-1-(pyridin-2-yl)ethyl]-8-[4-(trifluoromethyl)phenyl]-2H,8H-pyrazolo[3,4-b]indole-5-carboxamide] | 7.00 to 8.00 |  | 7.00 to 9.00 | < 4.52 |  |
| CNC(=O)c1ccc2c(c1)c1c(C)n(C)nc1n2-c1ccc(C(F)(F)F)cc1 [Example C96, N,2,3-trimethyl-8-[4-(trifluoromethyl)phenyl]-2H,8H-pyrazolo[3,4-b]indole-5-carboxamide] | 7.00 to 8.00 |  | 7.00 to 9.00 | < 5.49 |  |
| C[C@H](CO)NC(=O)c1ccc2c(c1)c1cn(C)nc1n2-c1ccc(C(F)F)cc1 [Example C247, 8-[4-(difluoromethyl)phenyl]-N-[(2R)-1-hydroxypropan-2-yl]-2-methyl-2H,8H-pyrazolo[3,4-b]indole-5-carboxamide] | 7.00 to 8.00 | < 4.52 | 7.00 to 9.00 |  |  |

More lines, main results first:

| pIC50 (YAP-TEAD interaction; [1]) | pIC50 (SW620 Yap KO cells; [2]) | pIC50 (NCI-H226 cells) | pIC50 (SW620 Yap KO cells; [3]) | SMILES | other results |
| --- | --- | --- | --- | --- | --- |
| 5.00 to 7.00 | < 4.52 | 5.00 to 6.00 |  | [2H]C1([2H])C(n2c3ccc(C(=O)NC)cc3c3cn(C)nc32)C([2H])([2H])C([2H])([2H])C([2H])([2H])C1([2H])[2H] [Example C194, 8-[(2,2,3,3,4,4,5,5,6,6-^2H10)cyclohexyl]-N,2-dimethyl-2H,8H-pyrazolo[3,4-b]indole-5-carboxamide] |  |
| 7.00 to 8.00 |  | 7.00 to 9.00 | < 5.49 | Cc1snc2c1c1cc(C(=O)NCCO)ccc1n2-c1ccc(C(F)(F)F)cc1 [Example C65, N-(2-hydroxyethyl)-3-methyl-8-[4-(trifluoromethyl)phenyl]-8H-[1,2]thiazolo[3,4-b]indole-5-carboxamide] |  |
| 7.00 to 8.00 |  | 7.00 to 9.00 | < 4.52 | Cc1snc2c1c1cc(C(=O)NCCn3ccnc3)ccc1n2-c1ccc(C(F)(F)F)cc1 [Example C121] |  |
|  |  | 6.00 to 7.00 | < 4.52 | Cn1cc2c3nc(C(=O)N=S(C)(C)=O)ccc3n(-c3ccc(C(F)(F)F)cc3)c2n1 [Example C108, N-[dimethyl(oxo)-λ^6-sulfanylidene]-4-methyl-7-[4-(trifluoromethyl)phenyl]-4,5,7,12-tetraazatricyclo [6.4.0.0^∧{^2,6}]dodeca-1(8),2,5,9,11-pentaene-11-carboxamide] | pIC50 (YAP-TEAD interaction; Homo sapiens, SK-HEP1, SK-HEP-1 reporter assay, n.d. = value not detectable below threshold given in parentheses, ND = not determinable within the entire range): < 4.52 |
| 7.00 to 8.00 | < 4.52 | 7.00 to 9.00 |  | Cn1ccc(C(CO)NC(=O)c2ccc3c(c2)c2cn(C)nc2n3-c2ccc(C(F)(F)F)cc2)n1 (stereo not drawn) [Example C260, N-[2-hydroxy-1-(1-methyl-1H-pyrazol-3-yl)ethyl]-2-methyl-8-[4-(trifluoromethyl)phenyl]-2H,8H-pyrazolo[3,4-b]indole-5-carboxamide] |  |
| 7.00 to 8.00 |  | 7.00 to 9.00 | < 4.52 | C[C@H](NC(=O)c1ccc2c(n1)c1cn(C)nc1n2-c1ccc(C(F)(F)F)cc1)c1ccccn1 [Example C119, 4-methyl-N-[(1S)-1-(pyridin-2-yl)ethyl]-7-[4-(trifluoromethyl)phenyl]-4,5,7,12-tetraazatricyclo[6.4.0.0^2,6]dodeca-1(8),2,5,9,11-pentaene-11-carboxamide] |  |
| 7.00 to 8.00 |  | 7.00 to 9.00 | < 5.49 | Cc1snc2c1c1cc(C(=O)NCc3ccncc3)ccc1n2-c1ccc(C(F)(F)F)cc1 [Example C62, 3-methyl-N-[(pyridin-4-yl)methyl]-8-[4-(trifluoromethyl)phenyl]-8H-[1,2]thiazolo[3,4-b]indole-5-carboxamide] |  |
| 7.00 to 8.00 | < 5.52 | 7.00 to 9.00 |  | Cn1nc2c3cc(C(=O)NC(CCO)c4ccccn4)ccc3n(-c3ccc(C(F)(F)F)cc3)c2n1 (stereo not drawn) [Example C226, N-[3-hydroxy-1-(pyridin-2-yl)propyl]-2-methyl-4-[4-(trifluoromethyl)phenyl]-2H,4H-[1,2,3]triazolo[4,5-b]indole-7-carboxamide] |  |
|  |  | 7.00 to 9.00 |  | CC(NC(=O)c1ccc2c(c1)c1cn(C)nc1n2-c1ccc(C(F)(F)F)cc1)c1ccn[nH]1 (single isomer, unassigned) [Example C75] | pIC50 (YAP-TEAD interaction; SK-HEP-1 reporter assay, class symbols): 7.00 to 8.00; pIC50 (SW620 Yap KO cells; 96 h, n.d. = value not detectable below threshold given in parentheses, ND = not determinable within the entire range): < 4.52 |
| 7.00 to 8.00 | < 4.52 | 7.00 to 9.00 |  | Cn1cc2c3cc(C(=O)N[C@@H](CO)c4ccccn4)ccc3n(-c3ccc(C(F)F)cc3)c2n1 [Example C248, 8-[4-(difluoromethyl)phenyl]-N-[(1R)-2-hydroxy-1-(pyridin-2-yl)ethyl]-2-methyl-2H,8H-pyrazolo[3,4-b]indole-5-carboxamide] |  |
|  | < 5.52 | 6.00 to 7.00 |  | Cn1cc2c3cc(C(=O)N=[S@@](=O)(CCCO)Cc4cccnc4)ccc3n(-c3ccc(C(F)(F)F)cc3)c2n1 (single isomer, unassigned) [Example C199] | pIC50 (YAP-TEAD interaction; [4]): < 7.02 |
| 7.00 to 8.00 | < 4.52 | 7.00 to 9.00 |  | Cn1nc2c3cc(C(=O)N=S(C)(=O)CCO)ccc3n(-c3ccc(C(F)(F)F)cc3)c2n1 (single isomer, unassigned) [Example C192] |  |
